Experiments:
Assay type in all cases: in vivo
Scirpus juncoides [1] = assay: Test Example 2: herbicidal effect test by treatment during growing period in paddy rice cultivation (seven days after seeding); details: 120 g/10a active ingredient, assessed 14 days after treatment, dry weight vs untreated area
Outline: (§1)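 Post-emergence paddy water application: compounds were formulated as emulsions, diluted and dropped into flooded pots seven days after sowing at a rate equivalent to 120 g per 10 ares. Efficacy was taken as dry-weight reduction relative to untreated controls after 14 days.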

Echinochloa crus-galli [2] = assay: as above; details: 120 g/10a active ingredient, assessed 14 days after treatment, dry weight vs untreated area
Outline: as §1

[3] = tested on: broad leaf weeds (Lindernia pyxidaria and Monochoria vaginalis); assay: as above; details: 120 g/10a active ingredient, assessed 14 days after treatment, dry weight vs untreated area
Outline: as §1

Amaranthus viridis = assay: Test Example 3: herbicidal effect test by treatment of dry field farming soil (one day after seeding); details: 120 g/10a active ingredient, evaluated 14 days after treatment
Description: (§2) This test was conducted in a double system per one agent solution concentration area, and the herbicidal rates (%) were determined by the following equation (Math. 1) on 14 days after the treatment with the agents. Herbicidal Rate (%)={1-(Average Dry Weight (g) of Plant of Treated Area)/(Average Dry Weight (g) of Plant of Untreated Area)}×100 [Math. 1]
(§3) Herbicidal Effect Test by Treatment of Dry Field Farming Soil
(§4) Pots with a size of 36 cm^2 were filled with a dry field farming soil (alluvium). The soil of the top layer of 1 cm and seeds of weeds, namely southern crabgrass, Echinochloa crus-galli, Chenopodium album and Amaranthus viridis, 20 seeds each, were evenly mixed, and the top layer was gently pressed. Emulsions prepared using the compounds in Table 5 below according to Formulation Example 5 were diluted with water one day after seeding, and the water-diluted agent solutions were sprayed to the soil surfaces at a ratio of 100 liters per 10 ares. The converted amount of the applied active ingredient corresponded to 120 g per 10 ares. The herbicidal effects were evaluated by the same standard as that in Test Example 1 on 14 days after the treatment with the agents. […] The compound numbers in Table 5 are the same as those in Table 1 and Table 2 above.

Echinochloa crus-galli [4] = assay: as above; details: 120 g/10a active ingredient, evaluated 14 days after treatment
Description: as §2, §3, §4

Chenopodium album = assay: as above; details: 120 g/10a active ingredient, evaluated 14 days after treatment
Description: as §2, §3, §4

southern crabgrass = assay: as above; details: 120 g/10a active ingredient, evaluated 14 days after treatment
Description: as §2, §3, §4

Scirpus juncoides [5] = assay: Test Example 1: herbicidal effect test by treatment of rice paddy soil (immediately after seeding)
Outline: (§5)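 Applied at 120 g a.i./10 ares as diluted emulsion dropped into flooded (~3 cm) paddy soil pots right after sowing seeds 0–1 cm deep; greenhouse, two replicates. At day 14, dry weight of treated versus untreated plants gives % herbicidal rate.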

Echinochloa crus-galli [6] = assay: as above
Outline: as §5

[7] = tested on: broad leaf weeds (Lindernia pyxidaria and Monochoria vaginalis); assay: as above
Outline: as §5

[8] = 120 g/10a active ingredient, dry weight vs untreated area, 14 days after treatment
[9] = Lindernia pyxidaria, 120 g/10a active ingredient, dry weight vs untreated area, 14 days after treatment
[10] = Monochoria vaginalis, 120 g/10a active ingredient, dry weight vs untreated area, 14 days after treatment
[11] = 120 g/10a active ingredient, 14 days after treatment, dry weight vs untreated area

For CCCCn1oc(=O)c(Cc2ccccc2N(S(=O)(=O)C(F)(F)F)S(=O)(=O)C(F)(F)F)c1C [Compound 1-969], the “Herbicidal rate (%) Scirpus juncoides” value (Scirpus juncoides [1]) was 90%, the “Herbicidal rate (%) Echinochloa crus-galli” value (Echinochloa crus-galli [2]) was 100% and the “Herbicidal rate (%) Lindernia pyxidaria” value [3] was 60%. For the same molecule, the “Herbicidal rate (%) Monochoria vaginalis” value [3] was 90%, the “herbicidal rate, Amaranthus viridis” value (Amaranthus viridis) was 40% and the “herbicidal rate, Echinochloa crus-galli” value (Echinochloa crus-galli [4]) was 90%. The “herbicidal rate, Chenopodium album” value (Chenopodium album) was 40%, the “herbicidal rate, southern crabgrass” value (southern crabgrass) was 80% and the “Herbicidal rate (%) Scirpus juncoides” value (Scirpus juncoides [5]; [8]) was 90%. For the same molecule, the “Herbicidal rate (%) Echinochloa crus-galli” value (Echinochloa crus-galli [6]; [8]) was 100%, the “Herbicidal rate (%) Lindernia pyxidaria” value [7, 9] was 100% and the “Herbicidal rate (%) Monochoria vaginalis” value [7, 10] was 80%.
For Cc1c(Cc2ccccc2NS(=O)(=O)C(F)(F)F)c(=O)on1CCSC(C)C [Compound 1-166], the “Herbicidal rate (%) Scirpus juncoides” value (Scirpus juncoides [1]) was 90%, the “Herbicidal rate (%) Echinochloa crus-galli” value (Echinochloa crus-galli [2]) was 100% and the “Herbicidal rate (%) Lindernia pyxidaria” value [3] was 90%. For the same molecule, the “Herbicidal rate (%) Monochoria vaginalis” value [3] was 90%, the “herbicidal rate, Amaranthus viridis” value (Amaranthus viridis) was 60% and the “herbicidal rate, Echinochloa crus-galli” value (Echinochloa crus-galli [4]) was 90%. For the same molecule, the “herbicidal rate, Chenopodium album” value (Chenopodium album) was 60%, the “herbicidal rate, southern crabgrass” value (southern crabgrass) was 90% and the “Herbicidal rate (%) Scirpus juncoides” value (Scirpus juncoides [5]; [8]) was 90%. The “Herbicidal rate (%) Echinochloa crus-galli” value (Echinochloa crus-galli [6]; [8]) was 100%, the “Herbicidal rate (%) Lindernia pyxidaria” value [7, 9] was 90% and the “Herbicidal rate (%) Monochoria vaginalis” value [7, 10] was 90%.
In the case of Cc1c(Cc2ccccc2NS(=O)(=O)C(F)(F)F)c(=O)on1CC1CC1 [Compound 1-143], the “Herbicidal rate (%) Scirpus juncoides” value (Scirpus juncoides [1]) is reported as 90%, the “Herbicidal rate (%) Echinochloa crus-galli” value (Echinochloa crus-galli [2]) is reported as 90% and the “Herbicidal rate (%) Lindernia pyxidaria” value [3] is reported as 70%. The “Herbicidal rate (%) Monochoria vaginalis” value [3] was 80%, the “herbicidal rate, Amaranthus viridis” value (Amaranthus viridis) was 60% and the “herbicidal rate, Echinochloa crus-galli” value (Echinochloa crus-galli [4]) was 50%. The “herbicidal rate, Chenopodium album” value (Chenopodium album) was 0%, the “herbicidal rate, southern crabgrass” value (southern crabgrass) was 40% and the “Herbicidal rate (%) Scirpus juncoides” value (Scirpus juncoides [5]; [8]) was 90%. For the same molecule, the “Herbicidal rate (%) Echinochloa crus-galli” value (Echinochloa crus-galli [6]; [8]) was 90%, the “Herbicidal rate (%) Lindernia pyxidaria” value [7, 9] was 100% and the “Herbicidal rate (%) Monochoria vaginalis” value [7, 10] was 100%.
In the case of Cc1c(Cc2ccccc2NS(=O)(=O)C(F)(F)F)c(=O)on1CCOc1ccccc1 [Compound 1-237], the “Herbicidal rate (%) Scirpus juncoides” value (Scirpus juncoides [1]) is reported as 90%, the “Herbicidal rate (%) Echinochloa crus-galli” value (Echinochloa crus-galli [2]) is reported as 90% and the “Herbicidal rate (%) Lindernia pyxidaria” value [3] is reported as 60%. The “Herbicidal rate (%) Monochoria vaginalis” value [3] was 90%, the “herbicidal rate, Amaranthus viridis” value (Amaranthus viridis) was 80% and the “herbicidal rate, Echinochloa crus-galli” value (Echinochloa crus-galli [4]) was 50%. For the same molecule, the “herbicidal rate, Chenopodium album” value (Chenopodium album) was 40%, the “herbicidal rate, southern crabgrass” value (southern crabgrass) was 50% and the “Herbicidal rate (%) Scirpus juncoides” value (Scirpus juncoides [5]; [8]) was 80%. For the same molecule, the “Herbicidal rate (%) Echinochloa crus-galli” value (Echinochloa crus-galli [6]; [8]) was 90%, the “Herbicidal rate (%) Lindernia pyxidaria” value [7, 9] was 90% and the “Herbicidal rate (%) Monochoria vaginalis” value [7, 10] was 80%.
With CC(C)n1oc(=O)c(Cc2ccccc2NS(=O)(=O)C(F)(F)F)c1C1CC1 [Compound 1-83] the “Herbicidal rate (%) Scirpus juncoides” value (Scirpus juncoides [1]) was 60%, the “Herbicidal rate (%) Echinochloa crus-galli” value (Echinochloa crus-galli [2]) was 40% and the “Herbicidal rate (%) Lindernia pyxidaria” value [3] was 40%. For the same molecule, the “Herbicidal rate (%) Monochoria vaginalis” value [3] was 40%, the “herbicidal rate, Amaranthus viridis” value (Amaranthus viridis) was 40% and the “herbicidal rate, Echinochloa crus-galli” value (Echinochloa crus-galli [4]) was 50%. For the same molecule, the “herbicidal rate, Chenopodium album” value (Chenopodium album) was 40%, the “herbicidal rate, southern crabgrass” value (southern crabgrass) was 40% and the “Herbicidal rate (%) Scirpus juncoides” value (Scirpus juncoides [5]; [8]) was 90%. The “Herbicidal rate (%) Echinochloa crus-galli” value (Echinochloa crus-galli [6]; [8]) was 90%, the “Herbicidal rate (%) Lindernia pyxidaria” value [7, 9] was 100% and the “Herbicidal rate (%) Monochoria vaginalis” value [7, 10] was 70%.
With Cc1c(Cc2ccccc2NS(=O)(=O)C(F)(F)F)c(=O)on1CCOCC(C)C [Compound 1-156] the “Herbicidal rate (%) Scirpus juncoides” value (Scirpus juncoides [1]) was 90%, the “Herbicidal rate (%) Echinochloa crus-galli” value (Echinochloa crus-galli [2]) was 80% and the “Herbicidal rate (%) Lindernia pyxidaria” value [3] was 100%. The “Herbicidal rate (%) Monochoria vaginalis” value [3] was 100%, the “herbicidal rate, Amaranthus viridis” value (Amaranthus viridis) was 60% and the “herbicidal rate, Echinochloa crus-galli” value (Echinochloa crus-galli [4]) was 80%. The “herbicidal rate, Chenopodium album” value (Chenopodium album) was 60%, the “herbicidal rate, southern crabgrass” value (southern crabgrass) was 80% and the “Herbicidal rate (%) Scirpus juncoides” value (Scirpus juncoides [5]; [8]) was 100%. For the same molecule, the “Herbicidal rate (%) Echinochloa crus-galli” value (Echinochloa crus-galli [6]; [8]) was 100%, the “Herbicidal rate (%) Lindernia pyxidaria” value [7, 9] was 100% and the “Herbicidal rate (%) Monochoria vaginalis” value [7, 10] was 80%.
With Cc1c(Cc2ccccc2N(S(=O)(=O)C(F)(F)F)S(=O)(=O)C(F)(F)F)c(=O)on1CC1(C)CO1 (stereo not drawn) [Compound 1-1051] the “Herbicidal rate (%) Scirpus juncoides” value (Scirpus juncoides [1]) was 90%, the “Herbicidal rate (%) Echinochloa crus-galli” value (Echinochloa crus-galli [2]) was 90% and the “Herbicidal rate (%) Lindernia pyxidaria” value [3] was 40%. For the same molecule, the “Herbicidal rate (%) Monochoria vaginalis” value [3] was 80%, the “herbicidal rate, Amaranthus viridis” value (Amaranthus viridis) was 80% and the “herbicidal rate, Echinochloa crus-galli” value (Echinochloa crus-galli [4]) was 80%. The “herbicidal rate, Chenopodium album” value (Chenopodium album) was 60%, the “herbicidal rate, southern crabgrass” value (southern crabgrass) was 80% and the “Herbicidal rate (%) Scirpus juncoides” value (Scirpus juncoides [5]; [11]) was 100%. The “Herbicidal rate (%) Echinochloa crus-galli” value (Echinochloa crus-galli [6]; [11]) was 80%, the “Herbicidal rate (%) Lindernia pyxidaria” value ([7]; Lindernia pyxidaria, 120 g/10a active ingredient, 14 days after treatment, dry weight vs untreated area) was 60% and the “Herbicidal rate (%) Monochoria vaginalis” value ([7]; Monochoria vaginalis, 120 g/10a active ingredient, 14 days after treatment, dry weight vs untreated area) was 80%.
